Laboratory results as given in patent US20140200241A1, “PRODRUGS FOR TREATING MICROBIAL INFECTIONS” (Northeastern University, priority 2011, published 2014).
≈ marks a conversion by molar mass, not a printed value. Read-outs that look alike come from different tables or passages of the source.

Legend:
E. coli ΔnfsA = experiment: microbe, parasite or virus in culture; conditions: Escherichia coli
E. coli ΔnfnB = experiment: microbe, parasite or virus in culture; conditions: Escherichia coli
Escherichia coli [1] = conditions: human
IMR90 [2] = experiment: cells; conditions: Homo sapiens, IMR-90
Enterococcus faecalis [3] = conditions: human
Pseudomonas aeruginosa [4] = experiment: microbe, parasite or virus in culture
Caco-2 [5] = conditions: human
in vitro = conditions: human
Escherichia coli [6] = experiment: microbe, parasite or virus in culture
IMR90 [7] = conditions: human
Acinetobacter baumannii [8] = experiment: microbe, parasite or virus in culture
Fadu [9] = conditions: human
E. coli ΔnfsA/ΔnfnB [10] = conditions: double mutant lacking both major nitroreductases vs wild type
MRSA = MRSA infection in C. elegans; type: in vivo
E. coli ΔnfsA/ΔnfnB [11] = experiment: microbe, parasite or virus in culture; conditions: Escherichia coli
Salmonella typhimurium = experiment: MIC against Salmonella typhimurium; type: cell-based; conditions: Salmonella enterica
Enterococcus faecalis [12] = experiment: microbe, parasite or virus in culture
Caco-2 [13] = experiment: cells; conditions: Homo sapiens
HepG2 [14] = conditions: human
Acinetobacter baumannii [15] = conditions: human
Fadu [16] = experiment: cells; conditions: Homo sapiens
HepG2 [17] = experiment: cells; conditions: Homo sapiens
Yersinia pestis [18] = conditions: human fibroblast IC50 vs MIC, Y. pestis
Staphylococcus aureus [19] = experiment: microbe, parasite or virus in culture; conditions: for MIC: S. aureus
Staphylococcus aureus [20] = conditions: for TI: human
Pseudomonas aeruginosa [21] = conditions: human
Bacillus anthracis [22] = experiment: microbe, parasite or virus in culture
Yersinia pestis [23] = experiment: microbe, parasite or virus in culture; conditions: for MIC: Y. pestis (FL2, PD30: KIM)
[24] = tested on: E. coli long-chromosomal-deletion mutants; conditions: 50 μg/ml of prodrug
Francisella tularensis [25] = experiment: microbe, parasite or virus in culture; conditions: for MIC: F. tularensis SchuS4
Bacillus anthracis [26] = conditions: human fibroblast IC50 vs MIC, B. anthracis
Francisella tularensis [27] = conditions: human fibroblast IC50 vs MIC, F. tularensis
S. aureus = S. aureus mouse infection model; cited from earlier work
E. coli ΔybgJ = experiment: microbe, parasite or virus in culture; conditions: Escherichia coli
E. coli ΔargC = experiment: microbe, parasite or virus in culture; conditions: Escherichia coli

Row | Structure (SMILES) | TI (Escherichia coli [1]) | IC50 (IMR90 [2]) [µg/mL] | TI (Enterococcus faecalis [3]) | MIC (Pseudomonas aeruginosa [4]) [µg/mL] | IC50 (in vitro) [µg/mL] | MIC (Escherichia coli [6]; read-out: MIC Against E. coli) [µg/mL] | TI (IMR90 [7]) | MIC (Acinetobacter baumannii [8]) [µg/mL] | TI (Fadu [9]) | MIC (Enterococcus faecalis [12]) [µg/mL] | TI (HepG2 [14]) | TI (Acinetobacter baumannii [15]) | IC50 (Fadu [16]) [µg/mL] | IC50 (HepG2 [17]) [µg/mL] | TI (Yersinia pestis [18]) | MIC (Staphylococcus aureus [19]) [µg/mL] | TI (Pseudomonas aeruginosa [21]) | MBC (Bacillus anthracis [22]) [µg/mL] | MIC (Bacillus anthracis [22]) [µg/mL] | MIC (Yersinia pestis [23]) [µg/mL] | other results
1 | O=[N+]([O-])c1ccc(/C=[N+](\[O-])CCO)o1 [FL1] | 320 | 250 (≈ 1250 µM) | 80 | 25 (≈ 125 µM) | 250 (≈ 1250 µM) | 0.78 (≈ 3.9 µM) | 320 | 12.5 (≈ 62.5 µM) | 80 | 3.12 (≈ 15.6 µM) | 40 | 20 | 62.5 (≈ 312 µM) | 31.2 (≈ 156 µM) | ≧320 | 1.56 (≈ 7.79 µM) | 10 | 0.78 (≈ 3.9 µM) | 0.35 (≈ 1.75 µM) | ≤ 0.78 | MIC (E. coli ΔnfsA): 2.5 µg/mL (≈ 12.5 µM); MIC (E. coli ΔnfnB): 0.16 µg/mL (≈ 0.799 µM); TI (Caco-2 [5]): 256; MBC (Escherichia coli [6]): 0.78 µg/mL (≈ 3.9 µM); MIC (Escherichia coli [6]): 0.78 µg/mL (≈ 3.9 µM); Hemolytic activity (Sheep's red blood cells): no hemolytic activity; decrease of activity (E. coli ΔnfsA/ΔnfnB [10]): 16 fold; in vivo efficacy (MRSA): in vivo efficacy against a MRSA infection in C. elegans; MIC (E. coli ΔnfsA/ΔnfnB [11]): 12.5 µg/mL (≈ 62.5 µM); MIC (Salmonella typhimurium): 5 µg/mL (≈ 25 µM); IC50 (Caco-2 [13]): 200 µg/mL (≈ 999 µM); MBC (Staphylococcus aureus [19]): 3.25 µg/mL (≈ 16.2 µM); TI (Staphylococcus aureus [20]): 160
2 | Oc1c(Br)cc(Br)c2cccnc12 [FL2] | 67 | 100 (≈ 330 µM) | – | > 50 | 100 (≈ 330 µM) | 1.5 (≈ 4.95 µM) | 67 | 6.25 (≈ 20.6 µM) | 21 | 3.25 (≈ 10.7 µM) | 42 | 16 | 31.2 (≈ 103 µM) | 62.5 (≈ 206 µM) | 67 | ≤ 1.5 | >2 | > 50 | 1.5 (≈ 4.95 µM) | 1.5 (≈ 4.95 µM) | MBC (Escherichia coli [6]): 3 µg/mL (≈ 9.9 µM); Resistance (growth in presence of prodrug) [24]: observed in a large number of deletions; MBC (Francisella tularensis [25]): 1.5 to 3.12 µg/mL (≈ 4.95 to 10.3 µM); MIC (Francisella tularensis [25]): 0.097 µg/mL (≈ 0.32 µM); TI (Bacillus anthracis [26]): 67; TI (Francisella tularensis [27]): 1,031; MBC (Yersinia pestis [23]): 12.5 to 25 µg/mL (≈ 41.3 to 82.5 µM)
3 | COc1ccccc1NC(=O)Nc1ccc2ccccc2c1 [INF271] | – | – | – | – | – | – | – | – | – | – | – | – | – | – | – | – | – | – | – | – | efficacy (S. aureus): shows efficacy in a S. aureus mouse infection model
4 | O=C(/C=C(\O)C(F)(F)F)c1ccc(Cl)cc1 [PD30] | 40 | 250 (≈ 998 µM) | 40 | > 50 | 250 (≈ 998 µM) | 6.25 (≈ 24.9 µM) | 40 | 12.5 (≈ 49.9 µM) | 10 | 6.25 (≈ 24.9 µM) | 10 | 20 | 62.5 (≈ 249 µM) | 62.5 (≈ 249 µM) | 320 | 3.12 (≈ 12.5 µM) | >2 | > 50 | 0.78 (≈ 3.11 µM) | 0.78 (≈ 3.11 µM) | MIC (E. coli ΔybgJ): 100 µg/mL (≈ 399 µM); TI (Caco-2 [5]): 32; Hemolytic activity (Sheep's red blood cells): no hemolytic activity; MBC (Francisella tularensis [25]): 0.78 to 1.5 µg/mL (≈ 3.11 to 5.99 µM); MIC (Francisella tularensis [25]): 0.195 µg/mL (≈ 0.778 µM); TI (Bacillus anthracis [26]): 320; IC50 (Caco-2 [13]): 200 µg/mL (≈ 798 µM); MIC (E. coli ΔargC): 50 µg/mL (≈ 200 µM); TI (Francisella tularensis [27]): 1,282; MIC (Staphylococcus aureus [20]; S. aureus): 3.12 µg/mL (≈ 12.4 µM); TI (Staphylococcus aureus [20]): 80; MBC (Yersinia pestis [23]): 3.12 to 6.25 µg/mL (≈ 12.4 to 24.9 µM)
